Results published in patent US11510917B2, “HIF-stabilization and prevention of hyperoxia-induced neonatal lung disease” (CORNELL UNIVERSITY, priority 2016, dated 2022).

How the values were obtained:
[1] = tested on: HIF PHD; test: luc-ODD luciferase reporter, live imaging and organ lysates; assay type: in vivo, mouse
Protocol: Detection of luc-ODD luciferase reporter in vivo and in vitro. Live imaging of luciferase activity was performed using Bruker Xtreme small animal x-ray, fluorescence bioluminescence imaging system. Luc-ODD mouse pups at 12 days of age (P12) were divided into appropriate experimental groups identified by ear notches and treated according to the experimental design, i.e., various length of pharmacological treatment (0, 3, 9, 24 hrs), or route of administration (intraperitoneal vs subcutaneous for 3 hrs). […] Ten minutes later, pups (in groups of 2 to 4) were placed in an imaging chamber supplied with a heated pad and inhalation cones for oxygen/isofurane mixture. Ventral and dorsal bioluminescent images were collected for 30 sec followed by white light images taken at autoexposure time. Light and luminescent images where then superimposed and quantitatively analyzed using Bruker MI v7 software. Luciferase activity in mouse organs was detected as follows. […] Tissues were placed in Glo Lysis Buffer (Promega), homogenized with disposable plastic pestles fitted to 1.5 mL microtubes on ice and centrifuged at 20,000×g, 4° C., for 15 min. Protein concentrations of tissue extracts were determined using BCA Protein Assay (Thermo Sci), adjusted to 150 ug (retina), 300 ug (kidney, spleen, lung) or 600 ug (brain, liver) per assay reaction by diluting with Glo Lysis Buffer in a total volume of 100 uL and placed in the wells of white opaque 96-well plate. Diluted extracts were then brought to room temperature, mixed with equal volume (100 uL) of ready-to-use luciferase substrate Bright-Glo Luciferase Assay System (Promega) and luminescence was measured immediately by a luminometer/fluorimeter Victor X2 (PerkinElmer).

[2] = tested on: lung mast cells; test: Lung mast cell number after neonatal hyperoxia; assay type: in vivo, mouse; settings: 10 mg/kg, 5-week time point
Description: Lungs from mice (CD1, MCD and CC), not undergoing pulmonary function testing, were fixed at a constant inflation pressure of 25 cm H2O in 10% neutral buffered formalin followed by paraffin embedding. Slides with 7 μm sections were deparaffinized, rehydrated, and washed in distilled water. Some sections were stained with hematoxylin and eosin (H&E) to visualize the structure of the lung. Other sections were stained with an antibody (CC10) (Santa Cruz Biotechnology) (1:50 dilution) to detect club cells, a cell type specific to the airways. Analysis on the alveolar space deliberately avoided airways and blood vessels. For each animal, 5 lung sections were analyzed and quantified as cells per mm^2 of lung tissue. Mast cells were detected in fixed tissue using either the glycoprotein avidin, conjugated to the enzyme horseradish peroxidase (HRP) (Vector Laboratories) or toluidine blue, the classic metachromatic stain for mast cells. Conjugated avidin is a well-defined histochemical method for identifying rodent and human mast cells, which express chondroitin sulfate E proteoglycans and heparin proteoglycans, respectively, in the secretory granules, binding specifically to the proteoglycan granules. Non-specific staining of biotin or biotin-like molecules previously reported […]. Deparaffinized sections were exposed to avidin-HRP 1:500. […]

[3] = tested on: EPO; test: ELISA of serum EPO; assay type: in vivo, mouse
[4] = tested on: neonatal mice chronically exposed to hyperoxia; test: Oxygen-induced lung injury, lung airspace analysis (chord length Lm); assay type: in vivo, mouse; settings: for alveolar enlargement, lung histology: 80% O2, 200 mg/kg i.p. intermittent during oxygen supplementation (Example 3); for protection of alveolar size (Lm) against moderate hyperoxia: about 45% O2, 2- and 5-week time points
Description: For this study we utilized a well-defined murine model of CLD using neonatal mice chronically exposed to hyperoxia for 2 weeks followed by normoxia for an additional 3. Timed pregnant mice were monitored hourly. Within hours of birth litters were pooled before being randomly redistributed to the newly delivered mothers. Experiments were begun on newborns at postnatal day 0. Half of the newborn pups were placed in a chamber designed to deliver variable oxygen concentrations (Biospherix Ltd) and set to 80% O2 (HO) and the other half remained in room air (RA) as age-matched controls. Mothers were rotated every 12 hours to prevent death from acute O2 toxicity. Neonatal CD1 mice also referred to as wild-type mice (Charles River), MCD mice (WBB6F1^−W/Wv) and their mast cell competent litter mates WBB6F1-^+/^+ (congenic controls (CC)) (Jackson Laboratories) were exposed to either HO or RA for 2 weeks and then kept in room air (FiO2 of 0.21) an additional 3 weeks for the 5-week time point. Some CD1 mice (HO and RA) were also maintained 18 weeks in room air for the 20-week time point. Survival and weight were monitored daily. All mice (CD1, MCD, and CC) used in this study were healthy at birth and survived until sacrificed. Unless specifically noted as CC or MCD, mouse experiments were performed with CD1 mice.
Oxygen-induced lung injury and lung airspace analysis. A well-defined murine model of CLD, a.k.a. bronchopulmonary dysplasia, using neonatal mice chronically exposed to hyperoxia followed by normoxia was used for our studies. Timed pregnant CD1 mice (Charles River) were monitored hourly. Within hours of birth litters were pooled before being randomly redistributed to the newly delivered mothers. Half of the newborn pups were immediately placed in a chamber designed to deliver variable oxygen concentrations (Biospherix) and set to 80%, 45% or 30% O2 (hyperoxia) and the other half remained in room air. Mothers were rotated every 12 hrs to prevent death from acute O2 toxicity. Newborn pups were exposed to either hyperoxia or room air for 2 weeks. […] Some animals were then kept in room air for an additional 3 weeks or 18 weeks before analysis. Lungs from mice were fixed at a constant inflation pressure of 25 cm H2O in 10% neutral buffered formalin followed by paraffin embedding. Sections (7 μm) were cut and slides of paraffinized tissue sections were deparaffinized, rehydrated, and washed in distilled water. Sections were stained with hematoxylin and eosin to visualize the structure of the lung. The direct method was used for the accurate estimation of the mean linear intercept length (Lm) (chord length) to assess the mean free distance in the alveoli. This method uses a set of random intercepts and calculates Lm from their frequency distribution and provides results on alveolar size distribution and alveolar surface area. […] On average 30-50 non-overlapping 1 mm^2 fields were analyzed for each lung section. Mean chord length of each alveolus (μm) was measured with the areas of approximately 4,000 individual alveoli/mouse measured in sections from room air mice and about 2,000 individual alveoli/mouse were analyzed in lung sections from hyperoxic mice.
The direct method was used for the accurate estimation of the mean linear intercept length (Lm) (chord length) to assess the mean free distance in the alveoli. […] On average 30-50 non-overlapping 1 mm^2fields were analyzed for each lung section and mean chord length of each alveolus (μm) was measured.

[5] = tested on: HIF-1α; test: Western blot of HIF-1α protein in mouse organs; assay type: in vivo
[6] = tested on: Mast cells; test: Mast cell protease (tryptase, chymase) abundance by Western blot; assay type: cell-based; settings: high oxygen (80%)
Description: FIG. 14. […] Mast cells express tryptase and chymase. […] N=4 separate blots, different samples. Aliquots of purified TA and HMC-1 exosomes were homogenized and the protein amounts determined by Lowry assay. Primary antibodies used were: mouse monoclonal TSG 101 (Santa Cruz sc-7964) at 1:500 dilution, mouse monoclonal Alix (Cell Signaling, 2171) at 1:1000 dilution, rabbit polyclonal CD63 (Santa Cruz, sc-15363) at 1:500 dilution, rabbit polyclonal chymase at a 1:2500 dilution (Abcam, 186417), mouse monoclonal mast cell tryptase (Abcam, ab2378) at 1:3000 dilution, rabbit polyclonal elastase (Abcam, ab68672) at 1:1000 dilution, mouse monoclonal mast cell CPA3 (Abcam, ab72575) at 1:500 dilution, and mouse monoclonal GAPDH (Cell Signaling, 14C10) and β-actin (Cell Signaling, 3700) at 1:100,000 dilution. GAPDH and β-actin were used as loading controls.

[7] = tested on: Hep3B cells; test: HIF-1α stabilization and EPO expression in cultured hepatoma cells; assay type: cell-based, human
[8] = tested on: neonatal mice chronically exposed to hyperoxia; test: Pulmonary function test of lung compliance after neonatal hyperoxia; assay type: in vivo, mouse; settings: 80% neonatal hyperoxia; intermittent treatment
Protocol: Pulmonary function tests (PFTs) were performed in 5- (CD1, MCD and CC) and 20-week old mice (CD1) post-neonatal HO or RA. Briefly, mice were anaesthetized with pentobarbital (100 mg/kg, intraperitoneal; American Pharmaceutical Partners), tracheostomized and mechanically ventilated at a rate of 150 breaths/min, a tidal volume of 10 ml/kg and positive end-expiratory pressure of 2-3 cm H2O using a computer-controlled animal ventilator (Sireq). The following perturbations were used to assess baseline respiratory mechanics and analyzed using Flexivent software (Sireq). Static lung compliance (Cst) was determined using the Salazar-Knowles equation applied to the plateau pressure measurements obtained between total lung capacity and functional residual capacity. Broadband forced oscillations were applied to determine tissue resistance (R) and Newtonian (airway) resistance (Rn) using a constant phase model. Mice used for measuring pulmonary function were not used for histological analyses.

[9] = kidney and liver, single i.p. injection

Row | half-life of HIF PHD inhibition [1, 9] | organs with highest luminescence ([1]; luc-ODD mouse, ventral and dorsal views, i.p. or s.c. injection) | Compound | duration of HIF PHD inhibition [1, 9] | luciferase activity over baseline ([1]; tissue lysates, liver) | lung mast cell increase ([2]; moderate (45%) hyperoxia) | lung mast cell increase ([2]; severe (80%) hyperoxia) | time of maximal increase in serum erythropoietin (EPO) ([3]; after i.p. injection) | dose of maximal effect, serum EPO as marker of HIF-1 activity ([3]; dose response in the mouse) | increase in serum EPO protein concentration ([3]; i.p. 10 mg/kg, P8 pups) | alveolar enlargement, lung histology [4] | alveolar size by chord length (Lm) ([4]; 80% O2 first 2 weeks then 3 weeks room air, 10 mg/kg s.c. intermittent, CD1 pups, 5-week time point, 10 mg/kg) | protection of alveolar size (Lm) against moderate hyperoxia ([4]; CD1 pups) | protection of alveolar size (Lm) against moderate hyperoxia ([4]; CD1 pups, listed as RXD) | increase of HIF-1α protein ([5]; liver and kidney) | increase of HIF-1α protein ([5]; spleen, lung, brain, and retina) | hyperoxia-induced tryptase and chymase abundance [6] | hyperoxia-induced tryptase and chymase abundance ([6]; listed as RXD) | HIF-1α stabilization and expression of EPO mRNA and protein [7] | lung compliance [8]
1 | 48 to 72 h | liver and kidney | Cc1nc(C(=O)NCC(=O)O)c(O)c2ccc(Oc3ccccc3)cc12 [Roxadustat, N-[(4-hydroxy-1-methyl-7-phenoxyisoquinolin-3-yl)carbonyl]glycine] | at least 24 hours | 6 fold | prevents the increase in mast cells | prevents the increase in mast cells | 6 h | 10 mg/kg bodyweight | 8 fold | reduced | statistically significant normalization in alveolar size | statistically significant normalization in alveolar size | protective | 5-10 fold | two-fold increase | decreases | decreased | can be recapitulated | 
2 |  |  | COC(=O)CNC(=O)C(=O)OC [DMOG, N-(2-Methoxy-2-oxaoacetyl)glycine methyl ester] |  |  |  |  |  |  |  | normalizes alveolar enlargement |  |  |  |  |  |  |  |  | maintains normal lung compliance
